Data taken from US10040781B2, “Tank-binding kinase inhibitor compounds” (Gilead Sciences, Inc., priority 2014, dated 2018).

Experiments:
IKKε = IKKε (Homo sapiens (Human), UniProt Q14164); test: IKKε TR-FRET enzymatic assay; type: biochemical; details: read-out: IKKe IC50
hJAK2 = hJAK2 (Homo sapiens (Human), UniProt O60674); test: hJAK2 LANCE TR-FRET enzymatic assay; type: biochemical; details: read-out: JAK2 IC50
TBK1 = TBK1 (Homo sapiens (Human), UniProt Q9UHD2); test: TBK1 TR-FRET enzymatic assay;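 further: phosphorylation of a biotinylated Ser/Thr peptide by purified full-length recombinant TBK1, read by TR-FRET after 240 min at 25 °C, IC50 is the geometric mean of at least four runs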
Chain of TBK1 (Q9UHD2 whole entry): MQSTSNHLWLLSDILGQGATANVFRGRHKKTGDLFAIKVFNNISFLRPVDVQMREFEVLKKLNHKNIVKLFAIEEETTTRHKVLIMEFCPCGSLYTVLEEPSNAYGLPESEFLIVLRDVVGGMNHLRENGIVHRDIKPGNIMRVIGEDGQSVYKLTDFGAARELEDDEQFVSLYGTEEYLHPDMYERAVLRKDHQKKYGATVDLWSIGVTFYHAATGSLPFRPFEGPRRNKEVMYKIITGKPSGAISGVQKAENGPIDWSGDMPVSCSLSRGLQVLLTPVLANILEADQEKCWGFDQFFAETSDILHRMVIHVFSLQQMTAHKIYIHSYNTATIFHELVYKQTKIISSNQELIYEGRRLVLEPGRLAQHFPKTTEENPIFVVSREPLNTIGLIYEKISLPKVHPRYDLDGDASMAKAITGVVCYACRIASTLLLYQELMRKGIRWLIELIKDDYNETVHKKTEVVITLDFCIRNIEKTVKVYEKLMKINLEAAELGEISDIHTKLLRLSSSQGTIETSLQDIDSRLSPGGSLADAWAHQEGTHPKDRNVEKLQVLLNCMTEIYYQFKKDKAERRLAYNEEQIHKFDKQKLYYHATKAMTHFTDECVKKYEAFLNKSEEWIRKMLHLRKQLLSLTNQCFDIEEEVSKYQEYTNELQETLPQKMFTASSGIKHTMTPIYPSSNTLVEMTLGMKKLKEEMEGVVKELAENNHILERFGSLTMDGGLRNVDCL

Chain of hJAK2 (O60674 whole entry): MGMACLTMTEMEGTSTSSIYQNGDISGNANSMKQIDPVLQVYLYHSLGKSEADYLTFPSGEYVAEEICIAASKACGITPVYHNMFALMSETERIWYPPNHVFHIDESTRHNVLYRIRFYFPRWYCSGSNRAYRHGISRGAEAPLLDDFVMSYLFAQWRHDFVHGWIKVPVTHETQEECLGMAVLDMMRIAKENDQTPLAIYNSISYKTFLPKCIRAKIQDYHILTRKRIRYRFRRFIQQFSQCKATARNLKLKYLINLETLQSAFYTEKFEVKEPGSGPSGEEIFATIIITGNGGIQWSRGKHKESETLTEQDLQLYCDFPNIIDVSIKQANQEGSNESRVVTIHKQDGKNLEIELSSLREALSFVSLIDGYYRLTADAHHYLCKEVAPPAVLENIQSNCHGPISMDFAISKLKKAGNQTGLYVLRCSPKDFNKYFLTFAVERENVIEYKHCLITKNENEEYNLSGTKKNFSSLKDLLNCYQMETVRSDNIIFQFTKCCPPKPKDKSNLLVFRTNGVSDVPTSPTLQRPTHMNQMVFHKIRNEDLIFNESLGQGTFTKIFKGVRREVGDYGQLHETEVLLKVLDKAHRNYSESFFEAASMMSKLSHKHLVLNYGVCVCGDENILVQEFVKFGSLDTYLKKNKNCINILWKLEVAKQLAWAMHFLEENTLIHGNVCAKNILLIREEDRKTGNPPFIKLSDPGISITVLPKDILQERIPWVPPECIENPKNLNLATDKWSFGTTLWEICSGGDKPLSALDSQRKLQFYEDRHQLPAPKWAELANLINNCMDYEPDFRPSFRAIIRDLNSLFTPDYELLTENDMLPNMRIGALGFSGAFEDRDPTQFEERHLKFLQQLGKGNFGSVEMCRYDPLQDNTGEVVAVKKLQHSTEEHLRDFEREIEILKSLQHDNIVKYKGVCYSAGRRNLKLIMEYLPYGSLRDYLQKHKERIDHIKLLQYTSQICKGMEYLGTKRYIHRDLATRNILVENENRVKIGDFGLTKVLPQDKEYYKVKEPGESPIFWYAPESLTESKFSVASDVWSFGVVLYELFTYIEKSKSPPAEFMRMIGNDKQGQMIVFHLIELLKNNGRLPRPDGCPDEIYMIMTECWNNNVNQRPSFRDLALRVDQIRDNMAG
Chain of IKKε (Q14164 whole entry): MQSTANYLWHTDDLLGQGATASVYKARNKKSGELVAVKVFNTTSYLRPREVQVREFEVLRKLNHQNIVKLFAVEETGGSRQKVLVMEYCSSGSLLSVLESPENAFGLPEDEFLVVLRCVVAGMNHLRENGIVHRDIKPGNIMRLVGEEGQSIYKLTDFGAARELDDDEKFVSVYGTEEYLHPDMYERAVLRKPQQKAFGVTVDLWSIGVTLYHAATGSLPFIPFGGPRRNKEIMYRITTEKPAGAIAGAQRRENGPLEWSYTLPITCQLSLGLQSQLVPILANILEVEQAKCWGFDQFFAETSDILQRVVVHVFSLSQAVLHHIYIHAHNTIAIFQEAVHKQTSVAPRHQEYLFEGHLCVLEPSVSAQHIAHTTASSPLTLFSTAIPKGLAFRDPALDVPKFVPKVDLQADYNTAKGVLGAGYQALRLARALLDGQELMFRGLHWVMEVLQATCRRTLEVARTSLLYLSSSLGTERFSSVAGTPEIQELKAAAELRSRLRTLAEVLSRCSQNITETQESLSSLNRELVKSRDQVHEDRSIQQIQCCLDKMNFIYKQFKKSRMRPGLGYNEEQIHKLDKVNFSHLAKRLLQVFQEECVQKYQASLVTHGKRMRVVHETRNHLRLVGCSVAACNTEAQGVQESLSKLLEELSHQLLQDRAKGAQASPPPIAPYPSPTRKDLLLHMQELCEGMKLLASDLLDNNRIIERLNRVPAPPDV

| Compound | IC50 (IKKε) | IC50 (hJAK2) | IC50 (TBK1) |
| --- | --- | --- | --- |
| Cc1noc(C(=O)N2CC[C@H](Oc3ccc(-c4ncnc(Nc5ccc(N6CCN(C7COC7)CC6)cc5)n4)cc3C#N)[C@H](F)C2)n1 [Example 612, 2-(((3R,4S)-3-fluoro-1-(3-methyl-1,2,4-oxadiazole-5-carbonyl)piperidin-4-yl)oxy)-5-(4-((4-(4-(oxetan-3-yl)piperazin-1-yl)phenyl)amino)-1,3,5-triazin-2-yl)benzonitrile] | 2 nM | 607 nM | 3 nM |
| C[C@H](O)C(=O)N1CC[C@H](Nc2ccc(-c3ncnc(Nc4ccc(N5CCN(C6COC6)CC5)cc4)n3)cc2C#N)[C@H](F)C1 [Example 613, 2-(((3R,4S)-3-fluoro-1-((S)-2-hydroxypropanoyl)piperidin-4-yl)amino)-5-(4-((4-(4-(oxetan-3-yl)piperazin-1-yl)phenyl)amino)-1,3,5-triazin-2-yl)benzonitrile] | 175 nM | 69 nM | 128 nM |
| N#Cc1cc(-c2ncnc(Nc3ccc(N4CCN(C5COC5)CC4)cc3)n2)ccc1O[C@H]1CCN(C(=O)C2(O)CNC2)C[C@H]1F [Example 614, 2-(((3R,4S)-3-fluoro-1-(3-hydroxyazetidine-3-carbonyl)piperidin-4-yl)oxy)-5-(4-((4-(4-(oxetan-3-yl)piperazin-1-yl)phenyl)amino)-1,3,5-triazin-2-yl)benzonitrile] | 45 nM | 268 nM | 25 nM |

Results, then the compound that gave them:

| IC50 (IKKε) | IC50 (hJAK2) | IC50 (TBK1) | Compound |
| --- | --- | --- | --- |
| 1 nM | ≥ 1000 nM | 4 nM | C[C@H](O)C(=O)N1CC[C@H](Oc2ccc(-c3ncnc(Nc4ccc([C@H]5CCCN5)cc4)n3)cc2C#N)[C@H](F)C1 [Example 615, 2-(((3R,4S)-3-fluoro-1-((S)-2-hydroxypropanoyl)piperidin-4-yl)oxy)-5-(4-((4-((R)-pyrrolidin-2-yl)phenyl)amino)-1,3,5-triazin-2-yl)benzonitrile] |
| 4 nM | ≥ 1000 nM | 5 nM | C[C@H](O)C(=O)N1CC[C@H](Oc2ccc(-c3ncnc(Nc4ccc([C@H]5CCCN5C5COC5)cc4)n3)cc2C#N)[C@H](F)C1 [Example 616, 2-(((3R,4S)-3-fluoro-1-((S)-2-hydroxypropanoyl)piperidin-4-yl)oxy)-5-(4-((4-((R)-1-(oxetan-3-yl)pyrrolidin-2-yl)phenyl)amino)-1,3,5-triazin-2-yl)benzonitrile] |
| 75 nM | 226 nM | 29 nM | COC[C@@H](O)C(=O)N1CC[C@H](Oc2ccc(-c3ncnc(Nc4ccc(N5CCN(C6COC6)CC5)cc4)n3)cc2C#N)[C@H](F)C1 [Example 617, 2-(((3R,4S)-3-fluoro-1-((R)-2-hydroxy-3-methoxypropanoyl)piperidin-4-yl)oxy)-5-(4-((4-(4-(oxetan-3-yl)piperazin-1-yl)phenyl)amino)-1,3,5-triazin-2-yl)benzonitrile] |
| 1 nM | 162 nM | 2 nM | COC[C@H](O)C(=O)N1CC[C@H](Oc2ccc(-c3ncnc(Nc4ccc(N5CCN(C6COC6)CC5)cc4)n3)cc2C#N)[C@H](F)C1 [Example 618, 2-(((3R,4S)-3-fluoro-1-((S)-2-hydroxy-3-methoxypropanoyl)piperidin-4-yl)oxy)-5-(4-((4-(4-(oxetan-3-yl)piperazin-1-yl)phenyl)amino)-1,3,5-triazin-2-yl)benzonitrile] |
